Laboratory results published in patent publication US20110105409A1, “Anticancer Compounds” (priority 2008, published 2011).
pEC50: −log10 of the molar value. Starred links: 1 amine or outer side, 2 acyl side, 3 side chain; linkers in the order of their positions; H or OH if unused. Positions of bridges follow the written chain, without caps; N, C: chain ends. Non-standard residues stand in square brackets, D forms with d. Residues, ends and D or L forms follow the SMILES beside them. ξ: configuration not given here. *: point of attachment. γ4hArg(2R,3R-(OH)2) = N=C(N)NCCC[C@H](N[*:1])[C@@H](O)[C@@H](O)C(=O)[*:2]; Heptanoyl(3R-OH,2R,4R,6-Me3) = CC(C)C[C@@H](C)[C@@H](O)[C@@H](C)C(=O)*; Gln(3S,4R-Me2) = C[C@H]([C@H](N)C(=O)O)[C@@H](C)C(N)=O; ξThr(3R)(O-yl) = C[C@@H](O[*:3])C(N[*:1])C(=O)[*:2]; dTyr(βR-OMe) = CO[C@H](c1ccc(O)cc1)[C@@H](N)C(=O)O; X6 = C[C@H](C(N[*:1])C(=O)[*:2])[C@@H](C)C(N)=O; X7 = CO[C@H](c1ccc(O)cc1)C(N[*:1])C(=O)[*:2]; dAsn(3S-OH) = NC(=O)[C@@H](O)[C@@H](N)C(=O)O; X5 = C[C@@H]1[C@@H](C(=O)*)NC(=O)[C@@H]1C; X4 = CC(C)(O)C(N[*:1])C(O)C(O)C(=O)[*:2]; ξGln(3,4-Me2) = CC(C(N)=O)C(C)C(N)C(=O)O; Abu(3S-NH2) = C[C@H](N)[C@H](N)C(=O)O; ξAsn(3ξ-OMe) = COC(C(N)=O)C(N)C(=O)O; d(aThr) = C[C@@H](O)[C@@H](N)C(=O)O; NMeQ = CN[C@@H](CCC(N)=O)C(=O)O; X1 = CC(C)CC(C)/C=C\C(O)CC(=O)*; ξThr(3R) = C[C@@H](O)C(N)C(=O)O; X3 = CCC(C)CC(C)C(O)C(C)C(=O)*; NMeL = CN[C@@H](CC(C)C)C(=O)O; X2 = CCCC(C)/C=C\C(O)CC(=O)*; Pip = O=C(O)[C@@H]1CCCCN1; NMeA = CN[C@@H](C)C(=O)O; dDap = NC[C@@H](N)C(=O)O; ξOrn = NCCCC(N)C(=O)O

Tests used:
MDA-MB-231 = experiment: SRB colorimetric cytotoxicity assay, MDA-MB-231; format: cell-based, human; conditions: for CC50 / GI50: Homo sapiens; for CC50: MDA-MB-231, 72 h, read-out: LC50; for GI50 / TGI: MDA-MB-231, 72 hours treatment, SRB
Text: (§1) The aim of this assay is to evaluate the in vitro cytostatic (ability to delay or arrest tumor cell growth) or cytotoxic (ability to kill tumor cells) activity of the samples being tested.
(§2) A colorimetric assay, using sulforhodamine B (SRB) reaction has been adapted to provide a quantitative measurement of cell growth and viability (following the technique described by Skehan et al. J. Natl. Cancer Inst. 1990, 82, 1107-1112).
(§3) This form of assay employs SBS-standard 96-well cell culture microplates (Faircloth et al. Methods in Cell Science, 1988, 11(4), 201-205; Mosmann et al, Journal of Immunological Methods, 1983, 65(1-2), 55-63). All the cell lines used in this study were obtained from the American Type Culture Collection (ATCC) and derive from different types of human cancer.
(§4) Cells were maintained in Dulbecco's Modified Eagle Medium (DMEM) supplemented with 10% Fetal Bovine Serum (FBS), 2 mM L-glutamine, 100 U/mL penicillin and 100 U/mL streptomycin at 37° C., 5% CO2 and 98% humidity. For the experiments, cells were harvested from subconfluent cultures using trypsinization and resuspended in fresh medium before counting and plating.
(§5) Cells were seeded in 96 well microtiter plates, at 5×10^3-7.5×10^3 cells per well in aliquots of 150 μL, and allowed to attach to the plate surface for 18 hours (overnight) in drug free medium. After that, one control (untreated) plate of each cell line was fixed (as described below) and used for time zero reference value. Culture plates were then treated with test compounds (50 μL aliquots of 4× stock solutions in complete culture medium plus 4% DMSO) using ten serial dilutions (concentrations ranging from 10 to 0.00262 μg/mL) and triplicate cultures (1% final concentration of DMSO). After 72 hours treatment, the antitumor effect was measured by using the SRB methodology: Briefly, cells were washed twice with PBS, fixed for 15 min in 1% glutaraldehyde solution at room temperature, rinsed twice in PBS, and stained in 0.4% SRB solution for 30 min at room temperature. Cells were then rinsed several times with 1% acetic acid solution and air-dried at room temperature. SRB was then extracted in 10 mM trizma base solution and the absorbance measured in an automated spectrophotometric plate reader at 490 nm. Effects on cell growth and survival were estimated by applying the NCI algorithm (Boyd M R and Paull K D. Drug Dev. Res. 1995, 34, 91-104).
(§6) Using the mean±SD of triplicate cultures, a dose-response curve was automatically generated using nonlinear regression analysis. Three reference parameters were calculated (NCI algorithm) by automatic interpolation: GI50=compound concentration that produces 50% cell growth inhibition, as compared to control cultures; TGI=compound concentration that produces total cell growth inhibition (cytostatic effect), as compared to control cultures, and LC50=compound concentration that produces 50% net cell killing (cytotoxic effect).

A549 = experiment: SRB colorimetric cytotoxicity assay, A549; format: cell-based, human; conditions: for TGI / GI50: A549, 72 hours treatment, SRB; for CC50 / GI50: Homo sapiens; for CC50: A549, 72 h, read-out: LC50
Text: as §1, §2, §3, §4, §5, §6

HT29 = experiment: SRB colorimetric cytotoxicity assay, HT29; format: cell-based, human; conditions: for TGI / GI50: HT29, 72 hours treatment, SRB; for CC50 / GI50: Homo sapiens; for CC50: HT-29, 72 h, read-out: LC50; for GI50: HT-29
Text: as §1, §2, §3, §4, §5, §6

Candida albicans = conditions: 100 μg/disc (6 mm); cited from earlier work
guinea pig atria = conditions: cited from earlier work
HIV-1 (Lai strain) = conditions: CEM4 cells; cited from earlier work
Na^+/Ca^2+ exchanger = conditions: cited from earlier work
[1] = tested on: CEM4 lymphocytic cell lines; conditions: CEM4 lymphocytic cell lines infected with HIV-1 (Lai strain); cited from earlier work
[2] = tested on: NSCLC-N6, E39, P388, and M96 tumor cells; conditions: range over NSCLC-N6, E39, P388 and M96 tumor cells; cited from earlier work
HIV-1 = conditions: cytoprotective activity against HIV-1 infection; cited from earlier work
[3] = tested on: HCT-116 (human colon tumor); conditions: HCT-116 cell line, cytotoxic activity; cited from earlier work
[4] = tested on: CEM-TART (CEM T-cells expressing both HIV-1 tat and rev); conditions: CEM-TART cell line, cytotoxic activity; cited from earlier work
HIV-1RF = conditions: infection of human T-lymphoblastoid cells by HIV-1RF in vitro; cited from earlier work
[5] = tested on: panel of human cancer cell lines; conditions: mean over panel of human cancer cell lines; cited from earlier work

## COC[C@H]1NC(=O)[C@H](NC(=O)C(NC(=O)[C@@H](NC(=O)[C@H](NC(=O)[C@H](NC(=O)CC(O)/C=C\C(C)CC(C)C)[C@H](O)C(N)=O)[C@@H](C)O)[C@H](C)N)C(C)C(C)C(N)=O)[C@@H](C)OC(=O)[C@H](C)N(C)C(=O)[C@@H]([C@H](OC)c2ccc(O)cc2)NC(=O)[C@H](CCC(N)=O)N(C)C(=O)[C@H](CC(C)C)NC(=O)CNC1=O (stereo partly drawn) [Stellatolide A] (X1-[dAsn(3S-OH)][d(aThr)][Abu(3S-NH2)][ξGln(3,4-Me2)][d(aThr)][dS](Me)GL[NMeQ][dTyr(βR-OMe)][NMeA]; ester 5-C)
MDA-MB-231
  CC50: 761 nM
  GI50: 330 nM
  TGI: 4.95E−07 Molar
A549
  TGI: 1.97E−07 Molar
  CC50: 406 nM
  GI50: 101 nM
HT29
  TGI: 8.88E−07 Molar
  CC50: 1330 nM
  GI50: 603 nM

## CCCC(C)/C=C\C(O)CC(=O)N[C@@H](C(=O)N[C@@H](C(=O)N[C@H](C(=O)NC(C(=O)N[C@H]1C(=O)N[C@H](COC)C(=O)NCC(=O)N[C@@H](CC(C)C)C(=O)N(C)[C@@H](CCC(N)=O)C(=O)N[C@H]([C@H](OC)c2ccc(O)cc2)C(=O)N(C)[C@@H](C)C(=O)O[C@@H]1C)C(C)C(C)C(N)=O)[C@H](C)N)[C@@H](C)O)[C@H](O)C(N)=O (stereo partly drawn) [Stellatolide B] (X2-[dAsn(3S-OH)][d(aThr)][Abu(3S-NH2)][ξGln(3,4-Me2)][d(aThr)][dS](Me)GL[NMeQ][dTyr(βR-OMe)][NMeA]; ester 5-C)
MDA-MB-231
  CC50: 1730 nM
  GI50: 704 nM
  TGI: 1.09E−06 Molar
A549
  TGI: 1.09E−06 Molar
  CC50: 1920 nM
  GI50: 640 nM
HT29
  TGI: 1.60E−06 Molar
  CC50: 2370 nM
  GI50: 1150 nM

## CO[C@H](c1ccc(O)cc1)[C@H]1NC(=O)[C@H](CCC(N)=O)N(C)C(=O)[C@H](CC(C)C)NC(=O)[C@@H](CCCN=C(N)N)NC(=O)[C@H]([C@@H](C)O)NC(=O)[C@@H](NC(=O)[C@@H](NC(=O)[C@H](O)[C@H](O)[C@H](CCCN=C(N)N)NC(=O)[C@@H](C)NC(=O)[C@H](C)[C@H](O)[C@H](C)CC(C)C)[C@@H](C)[C@@H](C)C(N)=O)[C@@H](C)OC(=O)[C@H](C)N(C)C1=O [callipeltin A] ({Heptanoyl(3R-OH,2R,4R,6-Me3)}-[dA][γ4hArg(2R,3R-(OH)2)][Gln(3S,4R-Me2)]TT[dR]L[NMeQ][dTyr(βR-OMe)][NMeA]; ester 4-C)
Candida albicans
  inhibition of growth (zone): 30 mm
Guinea pig atria
  inotropic effect: positive inotropic agent
HIV-1 (Lai strain)
  selectivity index (SI ratio CD50/ED50): 29
Na^+/Ca^2+ exchanger
  inhibition of the Na+/Ca2+ exchanger: selective and powerful inhibitor
[1]
  CD50: 0.29 µg/mL

## CO[C@H](c1ccc(O)cc1)[C@H]1NC(=O)[C@H](CCC(N)=O)N(C)C(=O)[C@H](CC(C)C)NC(=O)[C@@H](CCCNC(=N)N)NC(=O)[C@@H]([C@@H](C)O)NC(=O)[C@H](NC(=O)[C@H]2NC(=O)[C@H](C)[C@@H]2C)[C@@H](C)OC(=O)[C@H](C)N(C)C1=O [callipeltin B] (X5-[d(aThr)][d(aThr)][dR]L[NMeQ][dTyr(βR-OMe)][NMeA]; ester 1-C)
[2]
  IC50: 1.3 to >30 μg/mL

## CO[C@H](c1ccc(O)cc1)C1NC(=O)[C@H](CCC(N)=O)N(C)C(=O)[C@H](CC(C)C)NC(=O)[C@@H](CCCNC(=N)N)NC(=O)C([C@@H](C)O)NC(=O)C(NC(=O)C(NC(=O)[C@H](O)[C@H](O)[C@H](CCCNC(=N)N)NC(=O)[C@H](CC(N)=O)NC(=O)[C@H](C)[C@H](O)[C@H](C)CC(C)C)[C@@H](C)[C@@H](C)C(N)=O)[C@@H](C)OC(=O)[C@@H]2CCCCN2C(=O)[C@@H](CC(N)=O)NC1=O (stereo partly drawn) [neamphamide A] ({Heptanoyl(3R-OH,2R,4R,6-Me3)}-N[γ4hArg(2R,3R-(OH)2)][X6][ξThr(3R)(O-yl)][ξThr(3R)][dR]L[NMeQ][X7][dN][Pip]; ester 4-C)
HIV-1
  pEC50: ~7.55

## CCC(C)CC(C)C(O)C(C)C(=O)N[C@H](CN)C(=O)NC(C(O)C(O)C(=O)NC(C(=O)N[C@H]1C(=O)N[C@H]([C@@H](C)O)C(=O)NC(CCCN)C(=O)N[C@@H](CC(C)C)C(=O)N(C)[C@@H](CCC(N)=O)C(=O)NC(C(OC)C(N)=O)C(=O)N[C@H](CC(N)=O)C(=O)N(C)[C@@H](CC(C)C)C(=O)O[C@@H]1C)C(C)C(C)C(N)=O)C(C)(C)O (stereo partly drawn) [theopapuamide] (X3-[dDap][X4][ξGln(3,4-Me2)][d(aThr)][d(aThr)][ξOrn]L[NMeQ][ξAsn(3ξ-OMe)][dN][NMeL]; ester 4-C)
[3]
  pEC50: 6.05
[4]
  pEC50: 6.30

## papuamide A
HIV-1RF
  EC50: approximately 4 ng/mL
[5]
  mean IC50: 0.075 µg/mL

## papuamide B
HIV-1RF
  EC50: approximately 4 ng/mL
